According to patent US20260139017A1, “COMPOSITIONS AND METHODS USING REELIN IN ALZHEIMER'S DISEASE” (The General Hospital Corporation, priority 2022, published 2026):
Entries after “also recorded” stand apart in the source; their conditions may differ.

How the values were obtained:
VLDLr = biological target: T1, VLDLr (Homo sapiens, UniProt P98155); assay: ELISA cell-free binding of RELN variants to VLDLr
T1 construct: purchased R&D 8444-VL
Experimental: (§1) Enzyme-linked immunosorbent assay (ELISA) was used to quantify changes in binding of RELN variants (media-derived full-length or CTR-RELN) to either VLDLr or ApoEr2 following an optimized version of a previously published protocol (6). Briefly, ELISA strips (DY008, R&D Systems) were coated with one ng/μL (100 μL/well) of VLDLr (8444-VL, R&D) or ApoEr2 (TP320903, OnGene) receptors diluted in 25 mM Tris HCl, 140 mM NaCl, […], two mM CaCl2), pH 7.4 (TBS-C buffer). After 18 h at four ° C. incubation, plates were blocked one h with three % BSA (22070008-6, Bioworld), 0.05% Tween-20 (Sigma Aldrich) TBS-C buffer. We assessed binding via incubation with 100 μL/well of serial dilutions of recombinant RELN protein (Ser1221-Gln2666, 8546-MR-050, R&D) or RELN variants in TBS-C buffer for one hour at room temperature. For detection, we used goat anti-mouse RELN primary antibody (LS-C793521-100, LS-Bio, 1:2,000, 100 μL/well) as primary antibody for one h at R.T. and (1:10,000; 100 μL/well, donkey anti-goat IgG H&L, HRP, ab6885, Abcam) as secondary antibody for 30 min. at R.T. Between each of the previous steps, plates were washed four times with TBS-C buffer (200 μL/well). Plates were washed three times prior to initiating the colorimetric reaction (DY008, R&D Systems). Stop solution (50 μL/well, DY008, R&D Systems) was added upon five min. incubation and the absorbance of the samples was measured at 450 nm using the Synergy 2 microplate reader (BioTek Instruments). Processing and analysis of the data was done using Gen5 1.11 software and GraphPad Prism, respectively.

APOER2 = biological target: T2, APOER2 (Homo sapiens, UniProt Q14114); assay: ELISA cell-free binding of RELN variants to ApoEr2
T2 construct: purchased OnGene (so in the source)
T2 sequence (Q14114 33-963): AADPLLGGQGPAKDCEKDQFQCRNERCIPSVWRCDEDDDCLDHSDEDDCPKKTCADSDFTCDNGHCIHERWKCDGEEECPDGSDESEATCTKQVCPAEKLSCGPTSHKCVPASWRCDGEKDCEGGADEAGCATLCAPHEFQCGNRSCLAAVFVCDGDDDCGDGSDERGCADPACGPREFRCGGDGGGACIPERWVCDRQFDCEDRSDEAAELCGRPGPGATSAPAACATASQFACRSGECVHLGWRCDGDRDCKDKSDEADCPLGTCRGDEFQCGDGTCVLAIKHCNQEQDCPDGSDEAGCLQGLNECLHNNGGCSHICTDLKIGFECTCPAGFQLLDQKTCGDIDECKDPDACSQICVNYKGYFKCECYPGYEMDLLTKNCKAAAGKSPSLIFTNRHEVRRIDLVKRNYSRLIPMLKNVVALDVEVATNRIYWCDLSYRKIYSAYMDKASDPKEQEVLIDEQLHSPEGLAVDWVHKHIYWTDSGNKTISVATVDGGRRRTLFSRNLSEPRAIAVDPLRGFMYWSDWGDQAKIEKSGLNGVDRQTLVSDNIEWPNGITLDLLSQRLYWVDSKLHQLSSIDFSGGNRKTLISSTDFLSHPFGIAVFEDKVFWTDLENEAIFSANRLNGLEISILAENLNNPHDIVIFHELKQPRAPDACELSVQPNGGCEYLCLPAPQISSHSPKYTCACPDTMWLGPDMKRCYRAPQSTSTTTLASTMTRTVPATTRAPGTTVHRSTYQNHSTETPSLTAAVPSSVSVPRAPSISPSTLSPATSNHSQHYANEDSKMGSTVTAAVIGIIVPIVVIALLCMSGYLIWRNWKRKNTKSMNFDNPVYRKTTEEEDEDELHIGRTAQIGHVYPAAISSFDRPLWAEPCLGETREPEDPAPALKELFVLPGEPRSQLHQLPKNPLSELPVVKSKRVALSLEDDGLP
Experimental: as §1

[1] = Surface plasmon resonance (SPR) binding of CTR-RELN peptides to heparin-coated chip; conditions: SPR kinetic constants
Experimental: Surface plasmon resonance assay (SPR) was used for performing binding kinetics using a Biacore 3000 Instrument (GE Healthcare) at 25° C. following previously published protocols (7 24) as fee-for-service by Precision Antibody (Maryland, USA). Biotin-labeled heparin (B9806, Sigma Aldrich) was covalently linked to streptavidin-coated chip and unoccupied sites were blocked with biocytin. Antigen was flowed over the chip using a range of single analyte concentrations prepared in DPBS buffer and using a flow rate of 30 μL/min. Binding of antigen to the ligand was monitored in real time to obtain on (ka) and off (kd) rates. The equilibrium constant (KD) was calculated from the observed ka and kd. Accuracy of the SPR analysis was determined via Chi square (χ2) analysis as described in the statistical analysis section. We included in the analyses the WT and H3447R peptides and peptides with the hypothetical H3447D change ([…])(SEQ ID NO:57) and the H3447K change ([…])(SEQ ID NO:58), also produced and purified by Innovagen (Sweden).
Surface plasmon resonance assay (SPR) was used for performing binding kinetics using a Biacore 3000 Instrument (GE Healthcare) at 25° C. following previously published protocols 34 24 fee-for-service by Precision Antibody (Maryland, USA). Heparin was covalently linked to streptavidin coated chip at 13 response units (RU) concentration and unoccupied sites were blocked with biocytin. Antigen was flowed over the chip using a range of single analyte concentrations prepared in DPBS buffer and using a flow rate of 30 μL/min. Binding of antigen to the ligand was monitored in real time to obtain on (ka) and off (kd) rates. The equilibrium constant (KD) was calculated from the observed ka and kd. Accuracy of the SPR analysis was determined via Chi square (2) analysis as described in the statistical analysis section.

[2] = Heparin HPLC, peak retention time in KCl elution; type: binding; conditions: isocratic 1M KCl elution, long and short peptides
Experimental: […] 50 μl of 0.3 μg/μL uncleaved or cleaved WT Reelin peptide was used at 0.3 ml/min in 0.15MKCl, 10 mM PBS. 0-13.5 min: 0.15M KCl to load sample, 13.5-14.5 min: ramp to 0.5M KCl, 14.5-24.5 min: 0.5-1M KCl gradient (ramp), 24.5-45 min: 1M KCl (isocratic elution), 45-55 min: 1M KCl at 0.6 ml/min (wash), 55.0-56.0 min: ramp to 0.15M KCl at 0.3 ml/min, 56.0-59.0 min: 0.15M KCl (reset column). Fluorescence Intensities were measured at an excitation wavelength of 260 nm and emission wavelength of 290 nm, based on fluorescence properties of aromatic amino acids. To assess fluorescence properties of peptides, 15 ul of ˜0.6 ug/mL of peptide was diluted in 500 μL of 0.15MKCl, 10 mM PBS, and peak excitation and emission of peptides was calculated from the 2D graphical data.
The column chromatography method was adapted from previous research from the laboratory (2). Based on the column chromatography data, the initial protocol used a NaCl gradient from 0-1 M and a 5M salt wash to reset the HPLC column. However, the high salt gradient was corrosive to the HPLC machine parts. Therefore, KCl was considered because the […]. A lower molar concentration of a buffer with KCl could be used to disrupt heparin—Reelin CTR interactions compared to NaCl to help keep the HPLC pumps free of residual salts and potential corrosion. Since a lower concentration of salt was used, the amount of time needed at an […] hold of 1M KCl was extended until the peptide signal could not be detected before the column was equilibrated for the next sample.

Aβ42 = biological target: T3, Aβ42 (Homo sapiens, UniProt P05067); assay: Thioflavin T (ThT) Aβ aggregation assay; type: biochemical; conditions: Aβ42 55 μM, 10 μM peptide; vs Aβ alone
T3 construct: SensoLyte ThT O-Amyloid (1-42) Aggregation kit
Experimental: Therefore, the ThT assay can be used to quantify AB aggregation using previously developed methods (40).
We incubated CTR-RELN with Aβ and monitored aggregation using a ThioflavinT fluorescence assay normalized to the maximum ThT emission of Aβ only. We also assayed Aβ in the presence of morin, a known inhibitor (41), as a […]. Long and short WT and H3447R RELN CTR peptides were included to better understand the potential role of the H3447R mutation in amyloid pathology (FIGS. 14 and 15. Negative controls included long and short RELN CTR peptides with neutrally charged AAs (histidines) in place of basic AAs in the alpha- and beta-GAG binding sites.
A Thioflavin T (ThT) assay was also performed using synthetic Reelin peptides to assess the differential effects of these proteins on Aβ42 aggregation in vitro using Thioflavin T (SensoLyte ThT O-Amyloid (1-42) Aggregation kit, catalog no. ΔS-72214). Aβ42 was added to a final concentration of 55 μM in solutions of 10 μM of Reelin peptide variants in a transparent, no-binding 96-well plate. Samples were then mixed with 2 mM Thioflavin T dye and fluorescence was read at excitation wavelength/emission wavelength (Ex/Em)=440/484 nm at intermittent time intervals over 2 h. The plate was kept at 37° C. with 15 s shaking between reads. […] In general, it appears that the RELN Cterm domain is highly unstructured. […] If the mini-RELN includes the C-term domain only without a receptor binding domain then the protection will not involve signaling, but will still involve direct interactions with tau. If the mini-RELN includes the C-term domain and the receptor binding domain, it will have at least two protective mechanisms, namely RELN signaling and direct interactions with tau.

NRP1 = biological target: T4, NRP1 (Homo sapiens, UniProt O14786); assay: Bio-layer interferometry (BLI) of CTR-RELN-NRP-1 interactions; type: binding
T4 construct: purchased R&D 3870-N1-025
T4 sequence (O14786 22-644 isoform O14786-2 limits assumed): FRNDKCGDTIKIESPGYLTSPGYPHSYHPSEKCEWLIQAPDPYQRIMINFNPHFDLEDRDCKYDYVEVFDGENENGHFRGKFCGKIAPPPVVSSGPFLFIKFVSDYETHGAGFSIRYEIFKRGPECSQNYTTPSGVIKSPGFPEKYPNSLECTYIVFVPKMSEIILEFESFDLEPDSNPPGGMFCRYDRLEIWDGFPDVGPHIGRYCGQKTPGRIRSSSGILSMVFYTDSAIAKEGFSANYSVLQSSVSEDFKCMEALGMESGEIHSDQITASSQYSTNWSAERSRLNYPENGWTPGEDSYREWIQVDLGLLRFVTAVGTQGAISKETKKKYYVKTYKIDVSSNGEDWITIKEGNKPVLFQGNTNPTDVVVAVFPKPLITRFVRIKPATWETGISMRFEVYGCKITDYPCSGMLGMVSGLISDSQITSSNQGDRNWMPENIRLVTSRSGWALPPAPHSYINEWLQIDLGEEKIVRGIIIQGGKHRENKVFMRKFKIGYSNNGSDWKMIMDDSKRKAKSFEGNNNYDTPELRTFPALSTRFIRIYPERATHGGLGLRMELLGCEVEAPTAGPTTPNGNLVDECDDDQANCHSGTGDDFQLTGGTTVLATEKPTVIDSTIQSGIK
Experimental: (§2) Bio-layer interferometry (BLI) was additionally used to assess NRP1-protein kinetics at 30° C. and 1000 rpm agitation. 1 mg/mL NRP1 (R&D 3870-N1-025) was biotinylated at a 1:2 molar ratio, desalted, and immobilized on the SA biosensor tip (Pall ForteBio) surface. This was followed by 1) 180 seconds baseline buffer diluent, 2) loading of the ligand (NRP1), 3) 180 seconds baseline buffer diluent, 4) 240 seconds association (analyte), and 5) 300 seconds disassociation in assay buffer. Assay buffer: SD Buffer (pH7.4 PBS, 0.05% tween20, 0.01% BSA).
The experimental data were fit with the 1:1 binding model and analyzed with global fitting using Octet Data Analysis software to calculate KD.
as §2, with “was” for “was additionally”, “agitation using previously published methods.” for “agitation.”

T3 sequence (P05067 672-713 limits assumed): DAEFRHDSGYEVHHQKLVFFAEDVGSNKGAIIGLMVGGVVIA

RELN WT: full-length murine recombinant RELN, wild type
binding to VLDLr (VLDLr): did not differ
binding to APOER2 (APOER2): did not differ

RKQNYMMNFSRQHGLRDFYNRRRRSLRRYP [H3447D long]
heparin affinity/interaction relative to WT, in words [1]: reduced heparin interactions
peak retention time on heparin HPLC [2]: significantly less interaction; also recorded: earlier peak retention time
Aβ aggregation (ThT fluorescence) (Aβ42): similarly decrease aggregation

RKQNYMMNFSRQHGLRKFYNRRRRSLRRYP [H3447K long]
heparin affinity/interaction relative to WT, in words [1]: minimal effects
peak retention time on heparin HPLC [2]: increased later peak retention times
Aβ aggregation (ThT fluorescence) (Aβ42): similarly decrease aggregation

Vascular endothelial growth factor [VEGF, reference compound]
ka (NRP1; immobilized biotinylated NRP1): 272000 M⁻¹ s⁻¹
kd (NRP1; immobilized biotinylated NRP1): 0.0015 s⁻¹
Kd (NRP1; immobilized biotinylated NRP1, 30° C., 1:1 model): 5.53 nM
